From US20050267221A1, “Use of curcumin and analogues thereof as inhibitors of ACC2” (Research Development Foundation, priority 2004, published 2005)

Legend:
recombinant human ACC2 = recombinant human ACC2 (Homo sapiens, UniProt O00763); test: Radioactive assay of ACC2 activity ([14C]KHCO3 incorporation into malonyl-CoA); assay type: biochemical
Method: The reaction mixture contained 50 mM HEPES, pH 7.5, 2.5 mM MnCl2, 2.0 mM DTT, 0.125 mM acetyl-CoA, 4.0 mM ATP, 12.5 mM [^14C]KHCO3 (4×10^6 dpm), 0.75 mg/mL BSA, 10 mM tripotassium citrate and 0.1-0.2 μg ACC enzyme, in a total volume of 150 μL. The reaction was initiated by the addition of ACC2 and the assay was carried out at 37° C. for 2-7 min. The reaction was stopped by the addition of 50 μL of 6 N HCl. Subsequently, 150 μL was transferred into a glass scintillation vial and evaporated to dryness by heating to 85° C. in a heating block for 1 hour. The dried vials were cooled, 0.5 mL of water and 5 mL of ScintiSafe™ 30% were added, and the radioactivity was determined in a Beckman liquid scintillation counter (LS 3801). The tubes, where HCl was added before the addition of acetyl-CoA carboxylase, served as blanks. Avicin G and curcumin inhibitors were made up as stock solutions in water and DMSO, respectively, and added to the assay at the indicated concentrations such that the DMSO concentration was 1% (v/v). All reactions were performed in duplicate. Enzyme activity was based on radioactivity detected in malonyl-CoA and the dpm's set to 100% activity in the absence of any test compound. Inhibition by 1% (v/v) DMSO which was 16% was subtracted from values obtained in the dose response study.
A dose-response series was conducted with curcumin (in DMSO) to verify a classical inhibition pattern. In this study, all curcumin concentrations were added in 1% (v/v) DMSO and the enzyme activity measured.
The radioactive assay (as described in Example 3) was used to determine effects of the test compounds, avicin G and curcumin, on human acetyl-CoA carboxylase 2.

[1] = cited from earlier work

recombinant human ACC2, sequence (O00763 whole entry): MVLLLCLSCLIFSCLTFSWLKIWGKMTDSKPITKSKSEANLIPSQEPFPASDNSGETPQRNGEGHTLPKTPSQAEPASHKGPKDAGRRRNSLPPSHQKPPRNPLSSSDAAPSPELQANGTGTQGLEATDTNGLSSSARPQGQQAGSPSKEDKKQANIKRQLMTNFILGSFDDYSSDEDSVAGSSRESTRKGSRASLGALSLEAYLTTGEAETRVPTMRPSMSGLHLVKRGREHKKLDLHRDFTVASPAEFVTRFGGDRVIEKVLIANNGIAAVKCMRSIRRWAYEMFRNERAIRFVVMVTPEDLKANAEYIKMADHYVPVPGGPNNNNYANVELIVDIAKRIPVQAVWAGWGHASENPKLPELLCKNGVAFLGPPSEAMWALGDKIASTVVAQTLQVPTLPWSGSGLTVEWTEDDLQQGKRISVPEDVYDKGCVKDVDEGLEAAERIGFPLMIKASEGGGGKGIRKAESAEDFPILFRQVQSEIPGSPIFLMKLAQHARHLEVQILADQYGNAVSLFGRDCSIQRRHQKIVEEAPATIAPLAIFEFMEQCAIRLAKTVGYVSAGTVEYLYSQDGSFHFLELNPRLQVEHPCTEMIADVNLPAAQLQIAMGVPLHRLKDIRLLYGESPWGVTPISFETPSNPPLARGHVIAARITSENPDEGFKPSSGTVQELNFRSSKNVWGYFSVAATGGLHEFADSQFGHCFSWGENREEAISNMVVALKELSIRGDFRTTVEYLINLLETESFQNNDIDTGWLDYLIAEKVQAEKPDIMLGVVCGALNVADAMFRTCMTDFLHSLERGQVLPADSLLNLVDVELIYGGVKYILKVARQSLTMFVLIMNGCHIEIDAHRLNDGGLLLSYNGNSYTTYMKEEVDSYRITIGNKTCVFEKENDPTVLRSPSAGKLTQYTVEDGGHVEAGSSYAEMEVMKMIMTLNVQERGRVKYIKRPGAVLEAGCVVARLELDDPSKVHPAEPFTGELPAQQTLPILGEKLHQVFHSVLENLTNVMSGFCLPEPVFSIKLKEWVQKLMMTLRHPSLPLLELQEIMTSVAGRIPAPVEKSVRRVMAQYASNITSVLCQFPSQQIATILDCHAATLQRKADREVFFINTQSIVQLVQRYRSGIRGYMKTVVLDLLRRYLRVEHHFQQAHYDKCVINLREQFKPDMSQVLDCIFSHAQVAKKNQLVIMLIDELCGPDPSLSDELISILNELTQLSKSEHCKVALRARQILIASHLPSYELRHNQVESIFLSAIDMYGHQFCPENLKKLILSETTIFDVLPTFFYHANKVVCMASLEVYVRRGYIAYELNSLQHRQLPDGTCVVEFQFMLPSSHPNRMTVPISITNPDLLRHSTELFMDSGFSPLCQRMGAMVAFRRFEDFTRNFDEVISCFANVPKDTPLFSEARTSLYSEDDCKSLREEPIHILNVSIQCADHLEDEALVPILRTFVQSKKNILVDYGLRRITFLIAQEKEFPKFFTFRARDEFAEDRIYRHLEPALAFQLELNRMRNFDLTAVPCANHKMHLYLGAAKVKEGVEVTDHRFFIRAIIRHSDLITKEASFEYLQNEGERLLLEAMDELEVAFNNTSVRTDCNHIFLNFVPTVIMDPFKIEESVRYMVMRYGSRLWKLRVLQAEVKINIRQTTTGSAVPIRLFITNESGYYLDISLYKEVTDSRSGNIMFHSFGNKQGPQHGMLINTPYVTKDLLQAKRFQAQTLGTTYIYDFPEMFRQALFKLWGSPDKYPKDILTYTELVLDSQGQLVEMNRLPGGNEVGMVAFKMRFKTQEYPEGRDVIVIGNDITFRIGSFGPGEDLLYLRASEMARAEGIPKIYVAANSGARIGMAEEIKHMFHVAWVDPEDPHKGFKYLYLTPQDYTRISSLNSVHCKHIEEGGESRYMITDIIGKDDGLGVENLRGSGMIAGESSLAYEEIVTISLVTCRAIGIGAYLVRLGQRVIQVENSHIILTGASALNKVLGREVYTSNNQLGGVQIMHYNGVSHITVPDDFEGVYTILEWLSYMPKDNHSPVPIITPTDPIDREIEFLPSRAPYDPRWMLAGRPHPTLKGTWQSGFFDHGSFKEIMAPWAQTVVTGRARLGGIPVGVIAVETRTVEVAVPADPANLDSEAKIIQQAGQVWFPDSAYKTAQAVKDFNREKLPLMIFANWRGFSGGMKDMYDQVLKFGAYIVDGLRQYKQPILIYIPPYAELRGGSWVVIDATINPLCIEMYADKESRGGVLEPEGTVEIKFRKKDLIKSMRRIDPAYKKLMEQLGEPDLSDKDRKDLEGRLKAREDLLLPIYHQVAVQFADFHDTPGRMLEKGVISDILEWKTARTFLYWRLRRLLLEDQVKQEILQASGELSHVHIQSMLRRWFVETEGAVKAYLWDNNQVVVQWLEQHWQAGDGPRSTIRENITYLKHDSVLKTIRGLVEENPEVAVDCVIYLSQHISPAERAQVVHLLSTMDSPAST

Row | ACC Activity (%) ± S.D. (recombinant human ACC2; human ACC2, additive at 50 μM, curcumin in 1% (v/v) DMSO final, activity without test compound = 100%, duplicate) [%] | dose-response inhibition of ACC2 (in words) (recombinant human ACC2; human ACC2, dose-response series, all concentrations in 1% (v/v) DMSO, FIG. 1) | effect on ACC2 activity (in words) (recombinant human ACC2; recombinant human ACC2, radioactive assay, conditions of Table 1) | activity at 50 µM (recombinant human ACC2; human ACC2, additive at 50 μM, curcumin in 1% (v/v) DMSO final, activity without test compound = 100%, duplicate, read-out: ACC Activity (%) ± S.D.) [%] | SMILES | solubility in dimethylsulfoxide ([1]; dimethylsulfoxide) | solubility in ethanol ([1]; ethanol) | solubility in ether ([1]; ether) | solubility in water ([1]; water)
1 | 106 ± 7 | No significant inhibition | no significant effect | – | C=C[C@](C)(O)CC/C=C(\C)C(=O)O[C@H]1[C@H](O)[C@@H](O)[C@H](O[C@@](C)(C=C)CC/C=C(\CO)C(=O)O[C@H]2C[C@]3(C(=O)O[C@@H]4O[C@H](CO)[C@@H](O)[C@H](O)[C@H]4O[C@@H]4O[C@@H](C)[C@H](O[C@@H]5O[C@@H](CO)[C@H](O)[C@H]5O)[C@@H](O[C@@H]5O[C@H](CO)[C@@H](O)[C@H](O)[C@H]5O)[C@H]4O)[C@H](O)C[C@]4(C)C(=CC[C@@H]5[C@@]6(C)CC[C@H](O[C@@H]7O[C@H](CO[C@@H]8O[C@H](C)[C@H](O)[C@H](O)[C@H]8O[C@@H]8OC[C@@H](O)[C@H](O)[C@H]8O)[C@@H](O)[C@H](O)[C@H]7NC(C)=O)C(C)(C)[C@@H]6CC[C@]54C)[C@@H]3CC2(C)C)O[C@@H]1C [avicin G] | – | – | – | –
2 | – | – | – | 57 ± 3 | COc1cc(/C=C/C(=O)CC(=O)/C=C/c2ccc(O)c(OC)c2)ccc1O [curcumin, 1,7,-bis(4-hydroxy-3-methoxyphenyl)-1,6-heptadiene-3,5-dione] | soluble | soluble | insoluble | insoluble
